Broadly, the HC50 is the concentration that lyses half of the red blood cells.

No end group written: not given here.

One data set deals with S. aureus (ATCC 6538). Put plainly: microbe, parasite or virus in culture. It counts as cell-based, Staphylococcus aureus. Here is the method: (§1) The antimicrobial activities of peptides were evaluated against the Gram-positive bacteria, S. aureus (ATCC 6538), methicillin-resistant Staphylococcus aureus (MRSA) (NCTC 12493), Enterococcus faecalis (E. faecalis) (NCTC 12697); the Gram-negative bacteria, E. coli (ATCC CRM 8739), Klebsiella pneumoniae (K. pneumoniae) (ATCC 43816), Pseudomonas aeruginosa (P. aeruginosa) (ATCC CRM 9027); and the yeast, Candida albicans (C. albicans) (ATCC CRM 10231). Clinical isolates of MRSA (B042 V2E1 A), E. coli (ATCC BAA-2340), K. pneumoniae (ATCC BAA-1705), and P. aeruginosa (B004 V2S2 B) were also used to determine their antimicrobial activities. The suspension of microorganisms in the logarithmic growth phase with a specific final density (Gram-negative and Gram-positive bacteria: 5 × 10^5 CFU/mL; yeast: 1 × 10^6 CFU/mL) was incubated with different peptide concentrations from 1 µM to 512 µM at 37 °C for 24 h. PBS was used as the negative control, and norfloxacin and amphotericin B were selected as the positive control for bacteria and yeast, respectively. Since the Norfloxacin had weak activities against P. aeruginosa (B004 V2S2 B) and K. pneumoniae (ATCC BAA 1705), gentamicin was used as the positive control for these two bacterial strains. The absorbance of each well was obtained using a microplate reader (EL808, Biolise BioTek, Winooski, VT, USA) set at 550 nm wavelength. The MIC value was the lowest concentration of a peptide that inhibits visible bacterial growth. Once the MIC values were determined, an aliquot from the bacterial culture exposed to the peptide at or above its MIC value was inoculated on a Mueller Hinton agar (MHA) and was incubated at 37 for 18 h. The MBC value was the lowest concentration of a peptide that kills 99.9% of bacteria.

The test system of data set [1] is P. aeruginosa (ATCC CRM 9027) biofilm. It counts as cell-based, Pseudomonas aeruginosa. As to conditions: ATCC CRM 9027, 24 h. Here is the method:
(§2) The anti-biofilm activities of the peptides against S. aureus (ATCC 6538), MRSA (NCTC 12493), E. faecalis (NCTC 12697), E. coli (ATCC CRM 8739), K. pneumoniae (ATCC 43816), and P. aeruginosa (ATCC CRM 9027), were evaluated. For the MBIC assay, 99 µL of bacterial suspension (5 × 10^5 CFU/mL) was mixed with 1 µL of serial dilutions (from 100 µM to 51,200 µM) of temporin-PKE and its analogues in a 96-well plate, and the plate was incubated in a moist shaking incubator at a speed of 200 rpm at 37 °C for 24 h. For the MBEC assay, 100 µL of bacterial suspension (5 × 10^5 CFU/mL) in each well was seeded in a new 96-well plate, and the plate was put into the same shaking incubator for 24 h incubation to allow biofilm formation on the well. After biofilm formation, the biofilm in the plate was washed with PBS twice. The PBS was aspirated between washes to remove planktonic bacterial cells. The washed biofilm in each well was treated with 100 µL of serial dilutions (from 1 µM to 512 µM) of the test peptides. Then, the plate was incubated in the same shaking incubator for another 24 h. After being washed by PBS twice and fixed with methanol, the biofilm in each well was incubated with 100 µL of 0.1% crystal violet for 30 min, and the stained biofilm was dissolved in 100 µL of glacial acidic acid after drying. The solutions were transferred to a new microplate, and the absorbance of each well was measured using a microplate reader (EL808, Biolise BioTek, Winooski, VT, USA) set to 595 nm wavelength. The MBIC was the minimum concentration of the peptide showing no biofilm formation. The MBEC is the lowest concentration of the peptide capable of eradicating the mature biofilms, which had no biofilm in the well.

Data set [2] concerns K. pneumoniae (ATCC 43816) biofilm. It counts as cell-based, Klebsiella pneumoniae. As to conditions: ATCC 43816, 24 h. Here is the method:
as §2

Data set [3] relates to K. pneumoniae (ATCC BAA-1705). In words: microbe, parasite or virus in culture. The format is cell-based, Klebsiella pneumoniae. The method, then:
as §1

Data set [4] has as its system K. pneumoniae (ATCC 43816). Put plainly: microbe, parasite or virus in culture. The format is cell-based, Klebsiella pneumoniae. Here is the method:
as §1

For data set [5], the system named is C. albicans (ATCC CRM 10231). In words: organism not typed. It counts as cell-based, Candida albicans. The method, then:
as §1

In data set [6] the test system is S. aureus (ATCC 6538) biofilm. It counts as cell-based, Staphylococcus aureus. As to conditions: ATCC 6538, 24 h. Here is the method:
as §2

In the next data set the test system is E. faecalis (NCTC 12697). In words: microbe, parasite or virus in culture. The format is cell-based, Enterococcus faecalis. Here is the method:
as §1

The test system of a further data set is horse red blood cells. The format is cell-based. The method, then: As a previous study described in detail, the haemolysis activity assays of peptides were conducted on defibrinated horse blood (TCS Biosciences Ltd., Buckingham, UK) with an erythrocyte suspension concentration of 2% (v/v). The 120 μL of peptide solution in a gradient concentration ranging from 1µM to 512 µM was mixed with the same volume of 2% horse red blood cell suspension, and the complex was incubated at 37 °C for 2 h. PBS and 0.1% Triton X-100 were chosen as the negative and positive control, respectively. After centrifugation at 900× g for 5 min, the absorbance of the supernatant was analysed using a microplate reader (EL808, Biolise BioTek, Winooski, VT, USA) set to a wavelength of 570 nm. The equation to calculate the haemolysis of the peptides is shown below: Haemolysis (%)=A−An/Ap−An×100% where A represents the absorbance of each treatment group, An represents the average absorbance of the negative control group, and Ap represents the average absorbance of the positive control group.

For data set [7], the system named is E. coli (ATCC CRM 8739) biofilm. It counts as cell-based, Escherichia coli. As to conditions: ATCC CRM 8739, 24 h. The method, then: as §2

For FLPLIIGKLSSLLPKIF-NH2 [Temporin-PKE-2K], the MBC is 2 µM in the data set on S. aureus (ATCC 6538) (ATCC 6538, 18 h); 16 µM in data set [3] (ATCC BAA-1705, 18 h); 32 µM in data set [4] (ATCC 43816, 18 h, read-out: MBC); greater than 512 µM in [5] (ATCC CRM 10231, 18 h, read-out: MBC); 2 µM in the data set with E. faecalis (NCTC 12697) (NCTC 12697, 18 h). Further, the MIC against S. aureus (ATCC 6538) (ATCC 6538, 24 h) was 2 µM; in [3] (ATCC BAA-1705, 24 h), 16 µM; in data set [4] (ATCC 43816, 24 h, read-out: MIC) it was 16 µM; in data set [5] (ATCC CRM 10231, 24 h, read-out: MIC), greater than 512 µM; in the data set with E. faecalis (NCTC 12697) (NCTC 12697, 24 h), 2 µM. The MBIC in data set [1] was greater than 512 µM; in data set [2] it was 128 µM; in [6], 2 µM; in [7] it was 64 µM. For the same substance, the “HC50 relative to that of temporin-PKE” value with horse red blood cells came to 3 fold. For the same substance, the HC50 in the data set with horse red blood cells (red cells of horse, 2 h) came to 19.87 µM.

Source of the values: publication PMC9221509, “Discovery of a Novel Antimicrobial Peptide, Temporin-PKE, from the Skin Secretion of Pelophylax kl. esculentus, and Evaluation of Its Structure-Activity Relationships” (Biomolecules, 2022).
